Test results from publication PMC4279406, “Simultaneous targeting of PI3Kδ and a PI3Kδ-dependent MEK1/2-Erk1/2 pathway for therapy in pediatric B-cell acute lymphoblastic leukemia” (Oncotarget, 2014).

Assays:
[1] = test system: PDK1 and MEK1/2 association in Raji cells; assay: PDK1 immunoprecipitation, association with MEK1/2; format: cell-based, human; details: 1 μM, 1 h, anti-PDK1 immunoprecipitation
Experimental: Figure 5 Inhibition of Erk1/2 phosphorylation by X-370 contributed to its antiproliferative activity (A-C) X-370 inhibited Erk1/2 phosphorylation via PI3K-PDK1-MEK1/2 cascade but not the PI3K-Gab1 positive feedback loop. (A) Raji and SU-DHL-6 cells were exposed to 1 μM X370 for 3 h and protein fraction from cellular membrane was separated using Native Membrane Protein Extraction Kit and probed. WCL: whole cell lysate. (B) Inhibition of PDK1 or MEK1/2 abrogated Erk1/2 phosphorylation. Cells were treated with pharmacological inhibitors of Raf (AZ 628, PLX4032), MEK1/2 (AZD6244), p90RSK (BI-D1870), PI3Kδ (X-370), PDK1 (BX-912), Akt (MK-2206), mTOR (AZD8055) or mTORC1 (Rapamycin) respectively and indicated proteins were detected. (C) X-370 disrupted the association between PDK1 and MEK1/2. Raji cells were treated with 1 μM X370 for 1 h and cell lysates were immunoprecipitated with anti-PDK1 antibody and indicated proteins were detected. WCL: whole cell lysate. […] (E) Raji and Raji MEK DD cells were treated with X-370 for 72 h and cell proliferation was detected by CCK-8 assay. (F) Raji MEK DD cells were treated with X-370 and AZD6244 and cell proliferation was detected by CCK-8 assay. Data were show as mean ± SD of three independent experiments. *: p < 0.05 determined by t-tests at each data point. […]

Plk1 = molecular target: T1, Plk1 (Homo sapiens, UniProt P53350); assay: KinaseProfiler protein kinase activity; format: biochemical; details: 10 μM X-370
T1 construct: purchased Millipore KinaseProfiler
Experimental: (§1) In vitro kinase profile assays were analyzed by the Kinase Profiler Service (Millipore, United Kingdom) following its guidelines. A GST-tagged human p110δ and regulatory full-length p85 were co-expressed in insect cell Sf9. Recombinant protein was extracted by affinity purification. The PI3K kinase activity was determined in the increasing concentration of ATP and X-370 with PI3-Kinase HTRF™ Assay kit (Millipore) as described previously. […]
(§2) Table S1: Inhibitory activity of X-370 against protein kinases
(§3) kinome at 10 μM. The relative kianse activity left in the presence of 10 μM were shown (Mi llipore
(§4) Kinase activity (% of control) Kinase activity (% of control) Kinase activity (% of control)
(§5) CDK1/cyclinB 97 Lck activated 89 Ret 125

TBK1 = molecular target: T2, TBK1 (Homo sapiens, UniProt Q9UHD2); assay: KinaseProfiler protein kinase activity; format: biochemical; details: 10 μM X-370
T2 construct: purchased Millipore KinaseProfiler
T2 sequence (Q9UHD2 whole entry): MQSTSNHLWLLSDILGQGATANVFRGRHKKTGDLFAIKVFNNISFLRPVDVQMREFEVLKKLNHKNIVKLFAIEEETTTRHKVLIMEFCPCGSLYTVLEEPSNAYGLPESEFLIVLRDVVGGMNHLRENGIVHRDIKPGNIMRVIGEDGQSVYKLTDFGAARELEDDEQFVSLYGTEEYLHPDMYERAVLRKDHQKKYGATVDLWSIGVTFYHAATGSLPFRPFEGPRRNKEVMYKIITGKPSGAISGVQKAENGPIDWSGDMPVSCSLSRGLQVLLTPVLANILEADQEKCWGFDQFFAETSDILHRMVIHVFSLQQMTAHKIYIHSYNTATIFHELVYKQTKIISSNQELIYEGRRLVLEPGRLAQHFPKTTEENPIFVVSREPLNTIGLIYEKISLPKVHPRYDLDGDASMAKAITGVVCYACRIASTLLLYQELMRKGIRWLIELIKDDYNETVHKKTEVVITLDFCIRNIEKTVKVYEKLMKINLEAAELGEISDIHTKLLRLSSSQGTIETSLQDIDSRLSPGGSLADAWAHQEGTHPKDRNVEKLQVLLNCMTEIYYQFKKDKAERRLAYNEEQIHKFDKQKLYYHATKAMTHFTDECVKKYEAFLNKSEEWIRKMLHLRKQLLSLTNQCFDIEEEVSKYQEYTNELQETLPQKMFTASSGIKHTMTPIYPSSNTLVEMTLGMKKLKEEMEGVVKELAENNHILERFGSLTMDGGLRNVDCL
Experimental: as §1, §2, §3, §4, §5

JNK1 α1 = molecular target: T3, JNK1 α1 (Homo sapiens, UniProt P45983); assay: KinaseProfiler protein kinase activity; format: biochemical; details: 10 μM X-370
T3 construct: purchased Millipore KinaseProfiler
Experimental: as §1, §2, §3, §4, §5

MAPK1 = molecular target: T4, MAPK1 (Homo sapiens, UniProt P27361); assay: KinaseProfiler protein kinase activity; format: biochemical; details: 10 μM X-370
T4 construct: purchased Millipore KinaseProfiler
Experimental: as §1, §2, §3, §4, §5

mTOR = molecular target: T5, mTOR (Homo sapiens, UniProt P42345); assay: KinaseProfiler protein kinase activity; format: biochemical; details: 10 μM X-370
T5 construct: purchased Millipore KinaseProfiler
Experimental: as §1, §2, §3, §4, §5

IR, activated = molecular target: T6, IR, activated (Homo sapiens, UniProt P06213); assay: KinaseProfiler protein kinase activity; format: biochemical; details: 10 μM X-370
T6 construct: purchased Millipore KinaseProfiler
T6 sequence (P06213 28-1382): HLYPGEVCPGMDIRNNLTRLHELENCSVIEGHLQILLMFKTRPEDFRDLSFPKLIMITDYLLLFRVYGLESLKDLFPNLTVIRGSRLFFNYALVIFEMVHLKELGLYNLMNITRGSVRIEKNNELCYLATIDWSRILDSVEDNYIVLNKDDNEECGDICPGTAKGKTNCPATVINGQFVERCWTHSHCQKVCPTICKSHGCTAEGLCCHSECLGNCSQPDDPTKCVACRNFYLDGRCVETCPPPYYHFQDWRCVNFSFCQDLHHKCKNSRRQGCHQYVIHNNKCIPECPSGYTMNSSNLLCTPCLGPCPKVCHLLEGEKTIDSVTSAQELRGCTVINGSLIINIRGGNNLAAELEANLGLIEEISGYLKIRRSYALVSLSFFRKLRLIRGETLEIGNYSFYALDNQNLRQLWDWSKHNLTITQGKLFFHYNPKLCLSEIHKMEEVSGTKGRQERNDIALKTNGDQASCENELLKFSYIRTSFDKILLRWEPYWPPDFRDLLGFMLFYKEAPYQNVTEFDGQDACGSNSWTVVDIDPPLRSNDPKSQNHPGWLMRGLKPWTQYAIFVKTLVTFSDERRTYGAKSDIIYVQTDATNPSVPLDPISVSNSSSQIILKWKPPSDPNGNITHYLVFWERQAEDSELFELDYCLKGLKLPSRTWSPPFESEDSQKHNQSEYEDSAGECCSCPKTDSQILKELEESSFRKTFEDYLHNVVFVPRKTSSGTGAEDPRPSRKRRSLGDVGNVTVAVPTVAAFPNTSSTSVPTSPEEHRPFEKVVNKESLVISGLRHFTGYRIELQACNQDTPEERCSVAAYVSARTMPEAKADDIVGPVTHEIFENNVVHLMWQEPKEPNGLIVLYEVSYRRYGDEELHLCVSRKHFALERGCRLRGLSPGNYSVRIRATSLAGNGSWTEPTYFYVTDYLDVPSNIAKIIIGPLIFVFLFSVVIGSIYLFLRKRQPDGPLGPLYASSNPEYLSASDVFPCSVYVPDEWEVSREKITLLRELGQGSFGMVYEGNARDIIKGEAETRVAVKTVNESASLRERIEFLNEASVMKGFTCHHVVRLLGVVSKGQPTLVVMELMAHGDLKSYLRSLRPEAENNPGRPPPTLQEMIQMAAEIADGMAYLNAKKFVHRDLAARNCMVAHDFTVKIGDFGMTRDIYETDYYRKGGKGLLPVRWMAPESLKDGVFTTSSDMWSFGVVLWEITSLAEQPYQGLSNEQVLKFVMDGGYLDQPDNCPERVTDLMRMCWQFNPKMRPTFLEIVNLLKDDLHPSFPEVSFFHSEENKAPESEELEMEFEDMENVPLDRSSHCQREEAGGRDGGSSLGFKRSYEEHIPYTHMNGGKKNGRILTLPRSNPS
Experimental: as §1, §2, §3, §4, §5

FGFR1 = molecular target: T7, FGFR1 (Homo sapiens, UniProt P11362); assay: KinaseProfiler protein kinase activity; format: biochemical; details: 10 μM X-370
T7 construct: purchased Millipore KinaseProfiler
Experimental: as §1, §2, §3, §4, §5

Abl = molecular target: T8, Abl (Homo sapiens, UniProt P00519); assay: KinaseProfiler protein kinase activity; format: biochemical; details: 10 μM X-370
T8 construct: purchased Millipore KinaseProfiler
T8 sequence (P00519 whole entry): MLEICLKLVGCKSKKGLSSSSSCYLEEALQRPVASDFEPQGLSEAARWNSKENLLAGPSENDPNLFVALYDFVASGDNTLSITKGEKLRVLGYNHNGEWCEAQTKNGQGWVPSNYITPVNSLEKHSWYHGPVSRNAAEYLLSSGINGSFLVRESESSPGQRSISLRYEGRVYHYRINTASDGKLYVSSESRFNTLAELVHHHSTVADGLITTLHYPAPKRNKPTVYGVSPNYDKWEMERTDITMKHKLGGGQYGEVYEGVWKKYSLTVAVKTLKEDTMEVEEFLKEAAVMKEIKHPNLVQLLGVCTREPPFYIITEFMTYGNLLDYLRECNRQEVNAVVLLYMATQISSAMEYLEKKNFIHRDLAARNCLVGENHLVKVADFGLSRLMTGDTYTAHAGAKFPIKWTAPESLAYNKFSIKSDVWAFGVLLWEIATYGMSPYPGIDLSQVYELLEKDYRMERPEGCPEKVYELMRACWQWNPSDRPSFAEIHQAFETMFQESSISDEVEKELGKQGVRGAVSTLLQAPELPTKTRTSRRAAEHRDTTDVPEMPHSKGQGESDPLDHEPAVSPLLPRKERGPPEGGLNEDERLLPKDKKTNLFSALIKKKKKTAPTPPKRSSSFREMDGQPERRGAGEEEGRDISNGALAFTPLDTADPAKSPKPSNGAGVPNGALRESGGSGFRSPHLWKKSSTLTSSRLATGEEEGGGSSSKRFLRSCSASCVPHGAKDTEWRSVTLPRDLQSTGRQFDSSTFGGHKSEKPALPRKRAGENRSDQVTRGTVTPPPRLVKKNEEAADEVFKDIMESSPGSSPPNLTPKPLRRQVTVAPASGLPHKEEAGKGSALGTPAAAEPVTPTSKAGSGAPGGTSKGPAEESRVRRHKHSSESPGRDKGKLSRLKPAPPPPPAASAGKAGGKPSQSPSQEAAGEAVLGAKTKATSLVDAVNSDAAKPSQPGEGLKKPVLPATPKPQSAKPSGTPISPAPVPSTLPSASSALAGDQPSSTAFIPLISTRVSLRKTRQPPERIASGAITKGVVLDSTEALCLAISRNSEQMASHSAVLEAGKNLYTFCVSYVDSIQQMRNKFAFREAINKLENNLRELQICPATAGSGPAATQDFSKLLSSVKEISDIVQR
Experimental: as §1, §2, §3, §4, §5

EGFR = molecular target: T9, EGFR (Homo sapiens, UniProt P00533); assay: KinaseProfiler protein kinase activity; format: biochemical; details: 10 μM X-370
T9 construct: purchased Millipore KinaseProfiler
T9 sequence (P00533 25-1210): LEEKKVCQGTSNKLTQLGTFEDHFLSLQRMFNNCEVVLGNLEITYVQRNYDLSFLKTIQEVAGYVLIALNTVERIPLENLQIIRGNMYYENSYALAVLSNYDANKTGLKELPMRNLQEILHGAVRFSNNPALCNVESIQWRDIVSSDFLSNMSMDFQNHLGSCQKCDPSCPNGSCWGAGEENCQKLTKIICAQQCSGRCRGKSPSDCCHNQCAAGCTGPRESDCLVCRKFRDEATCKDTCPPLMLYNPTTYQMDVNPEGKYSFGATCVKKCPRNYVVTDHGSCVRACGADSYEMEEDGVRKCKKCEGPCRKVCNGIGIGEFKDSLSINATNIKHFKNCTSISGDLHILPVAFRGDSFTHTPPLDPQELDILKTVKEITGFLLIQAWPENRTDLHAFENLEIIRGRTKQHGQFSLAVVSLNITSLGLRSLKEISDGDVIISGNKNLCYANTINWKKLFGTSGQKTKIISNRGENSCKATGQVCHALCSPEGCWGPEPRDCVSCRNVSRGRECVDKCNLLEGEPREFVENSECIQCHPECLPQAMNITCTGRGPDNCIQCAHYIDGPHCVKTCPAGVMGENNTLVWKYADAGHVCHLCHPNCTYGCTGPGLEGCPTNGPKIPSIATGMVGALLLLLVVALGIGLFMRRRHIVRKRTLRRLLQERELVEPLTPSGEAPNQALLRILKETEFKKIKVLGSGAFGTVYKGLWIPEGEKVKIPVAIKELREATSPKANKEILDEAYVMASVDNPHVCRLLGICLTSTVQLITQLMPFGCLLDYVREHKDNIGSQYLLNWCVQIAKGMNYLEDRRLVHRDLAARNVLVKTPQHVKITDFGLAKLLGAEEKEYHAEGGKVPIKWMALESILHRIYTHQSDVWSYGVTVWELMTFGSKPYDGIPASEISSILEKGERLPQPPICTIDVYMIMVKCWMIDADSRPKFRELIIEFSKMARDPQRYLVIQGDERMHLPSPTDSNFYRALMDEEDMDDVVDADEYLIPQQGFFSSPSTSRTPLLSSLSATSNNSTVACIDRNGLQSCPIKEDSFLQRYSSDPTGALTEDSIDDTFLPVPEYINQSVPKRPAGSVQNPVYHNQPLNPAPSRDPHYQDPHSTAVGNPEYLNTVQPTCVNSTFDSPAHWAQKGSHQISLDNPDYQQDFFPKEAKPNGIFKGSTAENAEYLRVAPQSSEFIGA
Experimental: as §1, §2, §3, §4, §5

cKit = molecular target: T10, cKit (Homo sapiens, UniProt P10721); assay: KinaseProfiler protein kinase activity; format: biochemical; details: 10 μM X-370
T10 construct: purchased Millipore KinaseProfiler
Experimental: as §1, §2, §3, §4, §5

Ron = molecular target: T11, Ron (Homo sapiens, UniProt Q04912); assay: KinaseProfiler protein kinase activity; format: biochemical; details: 10 μM X-370
T11 construct: purchased Millipore KinaseProfiler
Experimental: as §1, §2, §3, §4, §5

PKC α = molecular target: T12, PKC α (Homo sapiens, UniProt P17252); assay: KinaseProfiler protein kinase activity; format: biochemical; details: 10 μM X-370
T12 construct: purchased Millipore KinaseProfiler
Experimental: as §1, §2, §3, §4, §5

SGK = molecular target: T13, SGK (Homo sapiens, UniProt O00141); assay: KinaseProfiler protein kinase activity; format: biochemical; details: 10 μM X-370
T13 construct: purchased Millipore KinaseProfiler
Experimental: as §1, §2, §3, §4, §5

Flt1 = molecular target: T14, Flt1 (Homo sapiens, UniProt P17948); assay: KinaseProfiler protein kinase activity; format: biochemical; details: 10 μM X-370
T14 construct: purchased Millipore KinaseProfiler
Experimental: as §1, §2, §3, §4, §5

mTOR/FKBP12 = molecular target: T15, mTOR/FKBP12 (Homo sapiens, UniProt P42345); assay: KinaseProfiler protein kinase activity; format: biochemical; details: 10 μM X-370
T15 construct: purchased Millipore KinaseProfiler
Experimental: as §1, §2, §3, §4, §5

NEK11 = molecular target: T16, NEK11 (Homo sapiens, UniProt Q8NG66); assay: KinaseProfiler protein kinase activity; format: biochemical; details: 10 μM X-370
T16 construct: purchased Millipore KinaseProfiler
Experimental: as §1, §2, §3, §4, §5

EphA1 = molecular target: T17, EphA1 (Homo sapiens, UniProt P21709); assay: KinaseProfiler protein kinase activity; format: biochemical; details: 10 μM X-370
T17 construct: purchased Millipore KinaseProfiler
Experimental: as §1, §2, §3, §4, §5

CHK1 = molecular target: T18, CHK1 (Homo sapiens, UniProt O14757); assay: KinaseProfiler protein kinase activity; format: biochemical; details: 10 μM X-370
T18 construct: purchased Millipore KinaseProfiler
Experimental: as §1, §2, §3, §4, §5

Pim-1 = molecular target: T19, Pim-1 (Homo sapiens, UniProt P11309); assay: KinaseProfiler protein kinase activity; format: biochemical; details: 10 μM X-370
T19 construct: purchased Millipore KinaseProfiler
Experimental: as §1, §2, §3, §4, §5

Fyn = molecular target: T20, Fyn (Homo sapiens, UniProt P06241); assay: KinaseProfiler protein kinase activity; format: biochemical; details: 10 μM X-370
T20 construct: purchased Millipore KinaseProfiler
Experimental: as §1, §2, §3, §4, §5

CDK1/cyclinB = molecular target: T21, CDK1/cyclinB (Homo sapiens, UniProt P06493); assay: KinaseProfiler protein kinase activity; format: biochemical; details: 10 μM X-370
T21 construct: purchased Millipore KinaseProfiler
Experimental: as §1, §2, §3, §4, §5

Src(1-530) = molecular target: T22, Src(1-530) (Homo sapiens, UniProt P12931); assay: KinaseProfiler protein kinase activity; format: biochemical; details: 10 μM X-370
T22 construct: purchased Millipore KinaseProfiler
Experimental: as §1, §2, §3, §4, §5

Aurora-A = molecular target: T23, Aurora-A (Homo sapiens, UniProt O14965); assay: KinaseProfiler protein kinase activity; format: biochemical; details: 10 μM X-370
T23 construct: purchased Millipore KinaseProfiler
Experimental: as §1, §2, §3, §4, §5

IGF-1R, activated = molecular target: T24, IGF-1R, activated (Homo sapiens, UniProt P08069); assay: KinaseProfiler protein kinase activity; format: biochemical; details: 10 μM X-370
T24 construct: purchased Millipore KinaseProfiler
Experimental: as §1, §2, §3, §4, §5

c-RAF = molecular target: T25, c-RAF (Homo sapiens, UniProt P04049); assay: KinaseProfiler protein kinase activity; format: biochemical; details: 10 μM X-370
T25 construct: purchased Millipore KinaseProfiler
Experimental: as §1, §2, §3, §4, §5

MAPKAP-K2 = molecular target: T26, MAPKAP-K2 (Homo sapiens, UniProt P49137); assay: KinaseProfiler protein kinase activity; format: biochemical; details: 10 μM X-370
T26 construct: purchased Millipore KinaseProfiler
Experimental: as §1, §2, §3, §4, §5

SAPK2a(T106M) = molecular target: T27, SAPK2a(T106M) (Homo sapiens, UniProt Q16539, T106M); assay: KinaseProfiler protein kinase activity; format: biochemical; details: 10 μM X-370
T27 construct: purchased Millipore KinaseProfiler
Experimental: as §1, §2, §3, §4, §5

- Kinase activity (% of control) (Plk1): 100 % of control
- Kinase activity (% of control) (TBK1): 93 % of control
- Kinase activity (% of control) (JNK1 α1): 90 % of control
- Kinase activity (% of control) (MAPK1): 81 % of control
- Kinase activity (% of control) (mTOR): 47 % of control
- Kinase activity (% of control) (IR, activated): 111 % of control
- Kinase activity (% of control) (FGFR1): 108 % of control
- Kinase activity (% of control) (Abl): 130 % of control
- Kinase activity (% of control) (EGFR): 90 % of control
- Kinase activity (% of control) (cKit): 104 % of control
- Kinase activity (% of control) (Ron): 111 % of control
- Kinase activity (% of control) (PKC α): 96 % of control
- Kinase activity (% of control) (SGK): 72 % of control
- Kinase activity (% of control) (Flt1): 99 % of control
- Kinase activity (% of control) (mTOR/FKBP12): 48 % of control
- Kinase activity (% of control) (NEK11): 95 % of control
- Kinase activity (% of control) (EphA1): 99 % of control
- Kinase activity (% of control) (CHK1): 74 % of control
- Kinase activity (% of control) (Pim-1): 88 % of control
- Kinase activity (% of control) (Fyn): 97 % of control
- Kinase activity (% of control) (CDK1/cyclinB): 97 % of control
- Kinase activity (% of control) (Src(1-530)): 99 % of control
- Kinase activity (% of control) (Aurora-A): 73 % of control
- Kinase activity (% of control) (IGF-1R, activated): 120 % of control
- Kinase activity (% of control) (c-RAF): 50 % of control
- Kinase activity (% of control) (MAPKAP-K2): 95 % of control
- Kinase activity (% of control) (SAPK2a(T106M)): 102 % of control
Structure (SMILES): O=C(N1CCCC1)N1CCC(n2cnc3c(-n4c(C(F)F)nc5ccccc54)nc(N4CCOCC4)nc32)CC1 [X-370]
- association between PDK1 and MEK1/2 [1]: dissociation of MEK1/2 and PDK1
